Data: patent US9975852B2, “Quinoline sulfonyl derivatives and uses thereof” (Health Sciences North Research Institute, priority 2013, dated 2018)
Entries after “also recorded” stand apart in the source; their conditions may differ.

Assays:
MCF7 cells = test: Flow cytometry, apoptosis of MCF7 cells; assay type: cell-based, human; conditions: VR-23 2.7 or 8.0 μM, 48 hours
Method: Asynchronous MCF7 cells were incubated for 48 hours in the absence (Sham treated control) or presence of VR-23 at 2.7 or 8.0 μM. […] (Note the sub-G1 DNA profile that is typical for apoptotic cell death.) The profiles of flow cytometry are consistent with the cell images in the corresponding upper panels (FIG. 3).

20S proteasome = 20S proteasome activity in HeLa S3 cell lysates; assay type: biochemical; conditions: 1 μM VR-23
Method: Exponentially growing HeLa S3 cells were plated on 96-well plates. After overnight incubation, the cells were treated with different concentrations of drugs for 6 hours or left untreated (control). At the end of 6 hours, proteasomes were extracted in 0.5% NP40 buffer, and equal amounts of samples were incubated with 25 μM of fluorogenic substrates purchased from Boston Biochem (Cambridge Mass.). (LRR-specific for trypsin-like activity, LLE-specific for caspase-like activity and SUVY-specific for chymotrypsin like activity) in black-bottom 96-well plates at 37° C. Fluorescence was monitored every 5 min at the wavelength of 360 nm (excitation) and 480 nm (emission). Chymotrypsin activity was also determined by a kit-based method (similar to described above) purchased from Caymen Biochem (Ann Arbor, Mich.), using a fluorogenic substrate specific for chymotrypsin activity.
Analysis of proteasome activity in HeLa S3 cell lysates treated with various compounds (FIG. 10). VR-23 inhibits proteasome activity. 20S proteasome activity was inhibited by 1 μM VR-23. MG132 and EGCG, known proteasome inhibitors, were used as positive controls. The PC positive control is cell lysates prepared from Jurkat cells with a high proteasome activity. “Asynchr” denote asynchronous HeLa S3 cells grown in the absence of VR-23.

Jurkat lymphoma cells = test: Flow cytometry, apoptosis of Jurkat lymphoma cells; assay type: cell-based; conditions: 0.75 μM VR-23, 48 hours
Method: Asynchronously growing Jurkat lymphoma cells were incubated for 48 hours in the absence (sham control) or presence of Bortezomib alone or in combination with VR-23.

184B5 = test: SRB antiproliferative assay, 184B5 non-cancer breast cells; assay type: cell-based, human; conditions: Homo sapiens, 184B5, SRB
Method: (§1) Antiproliferative effects were determined by a sulforhodamine B (SRB) based protocol. For a typical screening experiment, 5,000-10,000 cells were inoculated into 100 μl medium per well of a 96-well microtiter plate as described previously. […] Some of the sample wells were fixed with 25 μl of 50% trichloroacetic acid (TCA) as a control of the cell population for each cell line at the time of drug addition (Tz). An aliquot of the frozen stock was thawed and diluted to the desired final maximum test-concentration with complete medium. Two to ten-fold serial dilutions were made to provide a total of seven drug concentrations (and a control [C]). Following addition of drugs, the culture plate was incubated for additional 48 h. Cells were fixed in situ by slowly adding 25 μl of ice-cold 50% (w/v) TCA (final concentration, 10% TCA), and were then incubated for 60 min at 4° C. The supernatant was discarded, and the plate was washed five times with tap water, followed by air-dry. 50 μl of SRB solution at 0.4% (w/v) in 1% acetic acid was added to each well, and the plate was incubated for >30 min at room temperature. Unbound SRB was removed by five washes with tap water, followed by air-drying. […] The relative growth rate (%) was calculated for each of the compound concentrations according to the following formula: (Ti−Tz)/(C−Tz)×100 In the formula, time zero (Tz), control growth (C), and OD for different concentration of tested compounds (Ti). The GI50 for each compound was obtained from a non-linear Sigmoidal dose-response (variable slope) curve which is fitted by GraphPad Prism™ v.4.03 software. Values were calculated for each of these parameters if the level of activity was reached. However, if the effect was not reached or was exceeded, the value for that parameter was expressed as greater or less than the maximum or minimum concentration tested. Flow Cytometry

Jurkat = test: SRB antiproliferative assay, Jurkat; assay type: cell-based; conditions: Homo sapiens
Method: Antiproliferative effects were determined by a sulforhodamine B (SRB) based protocol. For a typical screening experiment, 5,000-10,000 cells were inoculated into 100 μl medium per well of a 96-well microtiter plate as described previously. Briefly, after the inoculation, the microtiter plate was incubated at 37° C., 5% CO2, 95% air and 100% relative humidity for 24 h, prior to addition of experimental drugs. Some of the sample wells were fixed with 25 μl of 50% trichloroacetic acid (TCA) as a control of the cell population for each cell line at the time of drug addition (Tz). An aliquot of the frozen stock was thawed and diluted to the desired final maximum test-concentration with complete medium. […] The cells “stained” with SRB were solubilized with 10 mM trizma base, and the absorbance was read on an automated plate reader at a wavelength of 515-564 nm. The relative growth rate (%) was calculated for each of the compound concentrations according to the following formula: (Ti−Tz)/(C−Tz)×100 In the formula, time zero (Tz), control growth (C), and OD for different concentration of tested compounds (Ti). […] Values were calculated for each of these parameters if the level of activity was reached. However, if the effect was not reached or was exceeded, the value for that parameter was expressed as greater or less than the maximum or minimum concentration tested. […]

Body weight of CD-1 mice = assay type: in vivo; conditions: 25 mg/kg/week VR-23 i.p.
MDA-MB468 = test: SRB antiproliferative assay, MDA-MB468; assay type: cell-based, human; conditions: Homo sapiens
Method: as §1

[1] = Body weight of ATH490 mice; assay type: in vivo; conditions: VR-23 30 mg/kg
Source text: D0-D25/D29 denotes day 0 to days 25/29 post-drug treatment. […] The body weights of ATH490 mice are normalized on the basis that those of day 0 are 100%.

In the case of `O=[N+]([O-])c1ccc(S(=O)(=O)N2CCN(c3ccnc4cc(Cl)ccc34)CC2)c([N+](=O)[O-])c1` [Compound 1, 7-Chloro-4-(4-(2,4-dinitrophenylsulfonyl)piperazin-1-yl)quinoline], the “Apoptosis (sub-G1 DNA profile)” value (MCF7 cells) is reported as “caused apoptosis”, the 20S proteasome activity (20S proteasome) is reported as “inhibited; also recorded: almost completely inhibits” and the “Cell killing by apoptosis” value (Jurkat lymphoma cells) is reported as “neither 6 nM of Bortezomib (FIG. 4, ii) nor 0.75 μM of VR-23 (FIG. 4, iv) induced substantial cell killing by apoptosis”. The IC50 (184B5) was 9000 ± 100 nM, the GI50 (184B5; 48 h, read-out: GI50 184B5) was 8990 ± 120 nM and the IC50 (Jurkat) was 800 ± 100 nM. The “Ill effects by changes in body weights” value (Body weight of CD-1 mice) was “did not show any ill effects”, the IC50 (MDA-MB468; MDA-MB-468) was 700 ± 100 nM and the GI50 (MDA-MB468; MDA-MB-468, 48 h) was 700 ± 100 nM. The “Toxic effect by body weight” value [1] was “did not show any notable toxic effect”.
